Measurements from patent US20260272899A1 (Bayer Aktiengesellschaft, priority 2024, published 2026).

With `CCOc1ncc(C)c2c1[C@H](c1ccc(C#N)cc1OC)C(C(N)=O)=C(C)N2` [finerenone, (4S)-4-(4-cyano-2-methoxyphenyl)-5-ethoxy-2,8-dimethyl-1,4-dihydro-1,6-naphthyridine-3-carboxamide] the “Sudden death, number of subjects” value (AE of death or leading to death by preferred term, finerenone n = 2,993) was 20, the “All-cause death, Rate (per 100 py)” value (No SGLT2i use at baseline, column headed Finerenone n = 2,610) was 7.0 per 100 py and the “Total worsening heart failure events and death from cardiovascular causes: Rate per 100 patient-yr” value (finerenone N = 3,003) was 14.9 per 100 patient-yr.
